From ChEMBL document CHEMBL1201862, “PubChem BioAssay data set” (2004)
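These data come from cells grown in 96-well plates and exposed to compound for 48 hours at five concentrations. The concentration for 50% growth inhibition is given as GI50.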 Activity calls are given as the source filed them. Rule as the data show it: active = GI50 up to about 1.1 µM and inactive = higher.

What was measured:
Assay in all cases: NCI-60 cell line screen, 48 h
[1] = tested on: UO-31
[2] = tested on: OVCAR-5
[3] = tested on: RXF 393
[4] = tested on: SF-268
[5] = tested on: HOP-62
[6] = tested on: NCI/ADR-RES
[7] = tested on: 786-0
[8] = tested on: HCT-15
[9] = tested on: MDA-N
[10] = tested on: NCI-H226
[11] = tested on: A549
[12] = tested on: BT-549
[13] = tested on: MOLT-4
[14] = tested on: Malme-3M
[15] = tested on: SF-539
[16] = tested on: UACC-257
[17] = tested on: HCT-116
[18] = tested on: HT-29
[19] = tested on: CAKI-1
[20] = tested on: TK-10

Structure (SMILES) | GI50 [1] | GI50 [2] | GI50 [3] | GI50 [4] | GI50 [5] | GI50 [6] | GI50 [7] | GI50 [8] [µM] | GI50 [9] | GI50 [10] | GI50 [11] | GI50 [12] | GI50 [13] | GI50 [14] | GI50 [15] | GI50 [16] | GI50 [17] | GI50 [18] | GI50 [19] | GI50 [20]
O[C@@H]1C[C@H]2N3CC[C@@]2(c2cc4c(cc2C3)OCO4)[C@H]2O[C@@H]12 | > 100 µM (inactive) | > 100 µM (inactive) | > 100 µM (inactive) | > 100 µM (inactive) | > 100 µM (inactive) | > 100 µM (inactive) | > 100 µM (inactive) | > 100 | > 100 µM (inactive) | 0.0271 µM (active) | > 100 µM (inactive) | > 100 µM (inactive) | > 100 µM (inactive) | > 100 µM (inactive) | 0.0178 µM (active) | 90.4 µM (inactive) | > 100 µM (inactive) | > 100 µM (inactive) | > 100 µM (inactive) | > 100 µM (inactive)
Cc1cc2oc(=N)c(C#N)c(C)c2cc1C | 45.1 µM (inactive) | > 100 µM (inactive) | 24.3 µM (inactive) | 44 µM (inactive) | 52 µM (inactive) | 55.1 µM (inactive) | 96.4 µM (inactive) | 42.3 | 96.8 µM (inactive) | 87.7 µM (inactive) | 48.8 µM (inactive) | 39.4 µM (inactive) | 2.5 µM (inactive) | 43 µM (inactive) | 62.8 µM (inactive) | > 100 µM (inactive) | 53.1 µM (inactive) | 63 µM (inactive) | 57.8 µM (inactive) | 67.3 µM (inactive)
NS(=O)(=O)c1nnc(NC(=O)N(c2ccccc2)c2ccccc2)s1 | 24 µM (inactive) | 24.8 µM (inactive) | 18.4 µM (inactive) | 30.3 µM (inactive) | 27.2 µM (inactive) | 18.2 µM (inactive) | 23 µM (inactive) | 22.5 | 25.4 µM (inactive) | 41.5 µM (inactive) | 26.3 µM (inactive) | 16.1 µM (inactive) | 21.1 µM (inactive) | 21.2 µM (inactive) | 17.6 µM (inactive) | 36.1 µM (inactive) | 29.4 µM (inactive) | 27.6 µM (inactive) | 28.6 µM (inactive) | 41.2 µM (inactive)
COc1cccc(C2C3=C(COC3=O)Oc3cc4c(cc32)OCO4)c1 (stereo not given) | 0.0927 µM (active) | 0.52 µM (active) | 0.0251 µM (active) | 0.0575 µM (active) | 0.033 µM (active) | 0.0168 µM (active) | 0.0344 µM (active) | 0.0172 | < 0.01 µM (active) | 0.0611 µM (active) | 0.0412 µM (active) | > 100 µM (inactive) | 0.0256 µM (active) | 0.0248 µM (active) | 0.0211 µM (active) | 0.0303 µM (active) | 0.0264 µM (active) | 0.0309 µM (active) | 0.0229 µM (active) | 0.0766 µM (active)
CCOC(=O)CC/C(C)=N\n1c(Cc2ccc(Cl)cc2)n[nH]c1=O | > 100 µM (inactive) | 14.3 µM (inactive) | > 100 µM (inactive) | > 100 µM (inactive) | > 100 µM (inactive) | > 100 µM (inactive) | > 100 µM (inactive) | > 100 | > 100 µM (inactive) | > 100 µM (inactive) | > 100 µM (inactive) | > 100 µM (inactive) | > 100 µM (inactive) | > 100 µM (inactive) | > 100 µM (inactive) | > 100 µM (inactive) | > 100 µM (inactive) | > 100 µM (inactive) | > 100 µM (inactive) | > 100 µM (inactive)
Cc1cn([C@@H]2C[C@H]2CO)c(=O)[nH]c1=O | 80.4 µM (inactive) | > 100 µM (inactive) | > 100 µM (inactive) | > 100 µM (inactive) | > 100 µM (inactive) | > 100 µM (inactive) | > 100 µM (inactive) | > 100 | > 100 µM (inactive) | > 100 µM (inactive) | > 100 µM (inactive) | > 100 µM (inactive) | > 100 µM (inactive) | > 100 µM (inactive) | 57 µM (inactive) | > 100 µM (inactive) | > 100 µM (inactive) | > 100 µM (inactive) | > 100 µM (inactive) | > 100 µM (inactive)
Cc1cc(=O)oc2cc(O)ccc12 [HYMECROMONE] | > 100 µM (inactive) | > 100 µM (inactive) | > 100 µM (inactive) | > 100 µM (inactive) | > 100 µM (inactive) | > 100 µM (inactive) | > 100 µM (inactive) | > 100 | > 100 µM (inactive) | > 100 µM (inactive) | > 100 µM (inactive) | 88.3 µM (inactive) | > 100 µM (inactive) | > 100 µM (inactive) | > 100 µM (inactive) | > 100 µM (inactive) | > 100 µM (inactive) | > 100 µM (inactive) | > 100 µM (inactive) | > 100 µM (inactive)
